Experimental data taken from patent US9529005B2, “Modulating bacterial MAM polypeptides in pathogenic disease” (priority 2011, dated 2016).
Values after ≈ are worked out from the molar mass of the structure shown. Read-outs that look alike come from different tables or passages of the source.

Key:
Experiment in all cases: Antimicrobial susceptibility testing (MIC), BD Phoenix Automated Microbiology System; on interpretation of the result: key: R, resistant; I, intermediate; S, susceptible; R*: *As a rule, when ESBL is detected, an interpretation of susceptible or intermediate for penicillins, cephalosporins and aztreonam is reported as resistant
Format in all cases: cell-based
Escherichia coli = conditions: for MIC: Escherichia coli, read-out: minimal inhibiting concentration
Text: (§1) The inventors performed antimicrobial susceptibility testing (AST) by determining the minimal inhibiting concentration (MIC) of a panel of antimicrobials on all twenty bacterial isolates using the BD Phoenix Automated Microbiology System (Table 3). Antimicrobial panels included several drugs from each of the four most commonly used classes of antimicrobials, aminoglycosides, β-lactams, carbapenems and fluoroquinolones. The panels also included antimicrobials from other classes, such as trimethoprim/sulfamethoxazole, but resistance to these was not considered in the classification of isolates as multidrug-resistant.

Klebsiella ssp. = conditions: for MIC: Klebsiella
Text: as §1

Acinetobacter baumannii = conditions: for MIC: Acinetobacter baumannii
Text: as §1

Pseudomonas aeruginosa = system: Pseudomonas aeruginosa; on interpretation of the result: key: R, resistant; I, intermediate; S, susceptible; R*: *As a rule, when ESBL is detected, an interpretation of susceptible or intermediate for penicillins, cephalosporins and aztreonam is reported as resistant
Text: as §1

[1] = Acinetobacter baumannii isolate 1
[2] = Acinetobacter baumannii isolate 2
[3] = Acinetobacter baumannii isolate 3
[4] = Acinetobacter baumannii isolate 4
[5] = Acinetobacter baumannii isolate 5
[6] = read-out: minimal inhibiting concentration, Acinetobacter baumannii isolate 1
[7] = read-out: minimal inhibiting concentration, Acinetobacter baumannii isolate 2
[8] = read-out: minimal inhibiting concentration, Acinetobacter baumannii isolate 3
[9] = read-out: minimal inhibiting concentration, Acinetobacter baumannii isolate 4
[10] = read-out: minimal inhibiting concentration, Acinetobacter baumannii isolate 5
[11] = Pseudomonas aeruginosa isolate 1
[12] = Pseudomonas aeruginosa isolate 2
[13] = Pseudomonas aeruginosa isolate 3
[14] = Pseudomonas aeruginosa isolate 4
[15] = Pseudomonas aeruginosa isolate 5

O=C(O)c1cn(C2CC2)c2cc(N3CCNCC3)c(F)cc2c1=O [Cipro., Ciprofloxacin]
interpretation of the result (Escherichia coli; Escherichia coli isolate 1): R | interpretation of the result (Escherichia coli; Escherichia coli isolate 2): R | interpretation of the result (Escherichia coli; Escherichia coli isolate 3): R | interpretation of the result (Escherichia coli; Escherichia coli isolate 4): R | interpretation of the result (Escherichia coli; Escherichia coli isolate 5): R | MIC (Escherichia coli; Escherichia coli isolate 1): > 2 µg/mL | MIC (Escherichia coli; Escherichia coli isolate 2): > 2 µg/mL | MIC (Escherichia coli; Escherichia coli isolate 3): > 2 µg/mL | MIC (Escherichia coli; Escherichia coli isolate 4): > 2 µg/mL | MIC (Escherichia coli; Escherichia coli isolate 5): > 2 µg/mL

C[C@@H](O)[C@H]1C(=O)N2C(C(=O)O)=C(S[C@@H]3CN[C@H](C(=O)Nc4cccc(C(=O)O)c4)C3)[C@H](C)[C@H]12 [Ert., Ertapenem]
susceptibility of isolates (Escherichia coli; all E. coli isolates): susceptible | interpretation of the result (Klebsiella ssp.; Klebsiella ssp. isolate 2): S | interpretation of the result (Klebsiella ssp.; Klebsiella ssp. isolate 3): S | interpretation of the result (Klebsiella ssp.; Klebsiella ssp. isolate 4): S | MIC (Klebsiella ssp.; read-out: minimal inhibiting concentration, Klebsiella ssp. isolate 2): ≤ 0.5 µg/mL | MIC (Klebsiella ssp.; read-out: minimal inhibiting concentration, Klebsiella ssp. isolate 3): ≤ 0.5 µg/mL | MIC (Klebsiella ssp.; read-out: minimal inhibiting concentration, Klebsiella ssp. isolate 4): ≤ 0.5 µg/mL | susceptibility of isolates (Klebsiella ssp.; all Klebsiella ssp. isolates): susceptible

COc1c(N2CCNC(C)C2)c(F)cc2c(=O)c(C(=O)O)cn(C3CC3)c12 (stereo not drawn) [Gati., Gatifloxacin]
interpretation of the result (Acinetobacter baumannii; [1]): R | interpretation of the result (Acinetobacter baumannii; [2]): R | interpretation of the result (Acinetobacter baumannii; [3]): I | interpretation of the result (Acinetobacter baumannii; [4]): R | interpretation of the result (Acinetobacter baumannii; [5]): R | MIC (Acinetobacter baumannii; [6]): > 4 µg/mL | MIC (Acinetobacter baumannii; [7]): > 4 µg/mL | MIC (Acinetobacter baumannii; [8]): 4 µg/mL (≈ 10.7 µM) | MIC (Acinetobacter baumannii; [9]): > 4 µg/mL | MIC (Acinetobacter baumannii; [10]): > 4 µg/mL

CCN1CCN(C(=O)N[C@@H](C(=O)N[C@@H]2C(=O)N3[C@@H]2SC(C)(C)[C@@H]3C(=O)O)c2ccccc2)C(=O)C1=O [Pip., Piperacillin]
interpretation of the result (Acinetobacter baumannii; [1]): R | interpretation of the result (Acinetobacter baumannii; [2]): R | interpretation of the result (Acinetobacter baumannii; [3]): R | interpretation of the result (Acinetobacter baumannii; [4]): R | interpretation of the result (Acinetobacter baumannii; [5]): R | MIC (Acinetobacter baumannii; [6]): > 64 µg/mL | MIC (Acinetobacter baumannii; [7]): > 64 µg/mL | MIC (Acinetobacter baumannii; [8]): > 64 µg/mL | MIC (Acinetobacter baumannii; [9]): > 64 µg/mL | MIC (Acinetobacter baumannii; [10]): > 64 µg/mL

Amoxillin-Calvulanate [AmoxC.]
interpretation of the result (Acinetobacter baumannii; [1]): R | minimal inhibiting concentration (Acinetobacter baumannii; [1]): 16/8 | interpretation of the result (Acinetobacter baumannii; [2]): R | minimal inhibiting concentration (Acinetobacter baumannii; [2]): 16/8 | interpretation of the result (Acinetobacter baumannii; [3]): R | minimal inhibiting concentration (Acinetobacter baumannii; [3]): 16/8 | interpretation of the result (Acinetobacter baumannii; [4]): R | minimal inhibiting concentration (Acinetobacter baumannii; [4]): 16/8 | interpretation of the result (Acinetobacter baumannii; [5]): R | minimal inhibiting concentration (Acinetobacter baumannii; [5]): 16/8 | interpretation of the result (Klebsiella ssp.; Klebsiella ssp. isolate 1): R | minimal inhibiting concentration (Klebsiella ssp.; Klebsiella ssp. isolate 1): 16/8 | interpretation of the result (Klebsiella ssp.; Klebsiella ssp. isolate 2): R | minimal inhibiting concentration (Klebsiella ssp.; Klebsiella ssp. isolate 2): 16/8 | interpretation of the result (Klebsiella ssp.; Klebsiella ssp. isolate 3): R | minimal inhibiting concentration (Klebsiella ssp.; Klebsiella ssp. isolate 3): 8/4 | interpretation of the result (Klebsiella ssp.; Klebsiella ssp. isolate 4): R | minimal inhibiting concentration (Klebsiella ssp.; Klebsiella ssp. isolate 4): 16/8 | interpretation of the result (Klebsiella ssp.; Klebsiella ssp. isolate 5): R | minimal inhibiting concentration (Klebsiella ssp.; Klebsiella ssp. isolate 5): 16/8

Ampicillin-Sulbactam [AmpS.]
interpretation of the result (Escherichia coli; Escherichia coli isolate 1): R | minimal inhibiting concentration (Escherichia coli; Escherichia coli isolate 1): 16/8 | interpretation of the result (Escherichia coli; Escherichia coli isolate 2): R | minimal inhibiting concentration (Escherichia coli; Escherichia coli isolate 2): 16/8 | interpretation of the result (Escherichia coli; Escherichia coli isolate 3): R | minimal inhibiting concentration (Escherichia coli; Escherichia coli isolate 3): 16/8 | interpretation of the result (Escherichia coli; Escherichia coli isolate 4): R | minimal inhibiting concentration (Escherichia coli; Escherichia coli isolate 4): 16/8 | interpretation of the result (Escherichia coli; Escherichia coli isolate 5): R | minimal inhibiting concentration (Escherichia coli; Escherichia coli isolate 5): 16/8 | interpretation of the result (Pseudomonas aeruginosa; [11]): R | minimal inhibiting concentration (Pseudomonas aeruginosa; [11]): 16/8 | interpretation of the result (Pseudomonas aeruginosa; [12]): R | minimal inhibiting concentration (Pseudomonas aeruginosa; [12]): 16/8 | interpretation of the result (Pseudomonas aeruginosa; [13]): R | minimal inhibiting concentration (Pseudomonas aeruginosa; [13]): 16/8 | interpretation of the result (Pseudomonas aeruginosa; [14]): R | minimal inhibiting concentration (Pseudomonas aeruginosa; [14]): 16/8 | interpretation of the result (Pseudomonas aeruginosa; [15]): R | minimal inhibiting concentration (Pseudomonas aeruginosa; [15]): 16/8
